Values after ≈ are worked out from the molar mass of the structure shown. Where a SMILES comes first, the peptide text is derived from it.
How the values were obtained:
Format in all cases: functional
OVCAR-3 = test: Compound was tested for inhibition of OVCAR-3 human ovarian cancer cell line
P388 = test: Compound was tested for inhibition of murine P388 lymphocytic leukemia cancer cell line; conditions: Mus musculus, read-out: ED50 (the source's name)
SF-295 = test: Compound was tested for inhibition of SF-295 human CNS cancer cell line
SK-MEL-5 = test: Compound was tested for inhibition of SK-MEL-5 human melanoma cancer cell line
A498 = test: Compound was tested for inhibition of A498 human renal cancer cell line
NCI-H460 = test: Compound was tested for inhibition of NCI-H460 human lung cancer cell line
KM-20L2 = test: Compound was tested for inhibition of KM20L2 human colon cancer cell line

How did the GI50 (OVCAR-3) turn out when `CC[C@H](C)[C@@H]1NC(=O)[C@@H]2CCCN2C(=O)[C@H](CC(C)C)NC(=O)[C@H](Cc2c[nH]c3ccccc23)NC(=O)[C@@H]2CCCN2C(=O)[C@H](Cc2ccccc2)NC(=O)[C@@H]2CCCN2C1=O` (cyclo(FPWLPIP)) was run?
The GI50 was 0.025 µg/mL (≈ 0.0294 µM).

What about the EC50 (P388) of the same molecule?
Its EC50 is 0.185 µg/mL (≈ 0.217 µM).

And the GI50 (SF-295)?
The GI50 was 0.041 µg/mL (≈ 0.0482 µM).

And the GI50 (SK-MEL-5)?
Its GI50 is 0.032 µg/mL (≈ 0.0376 µM).

And the GI50 (A498)?
The GI50 was 0.078 µg/mL (≈ 0.0917 µM).

What about the GI50 (NCI-H460) of the same molecule?
The GI50 was 0.019 µg/mL (≈ 0.0223 µM).

What about the GI50 (KM-20L2) of the same molecule?
Its GI50 is 0.021 µg/mL (≈ 0.0247 µM).
